The target of assay [1] is CDK2/cyclin E (Homo sapiens, UniProt P24941). As to the kind of experiment: Assay of kinase activity (ADP-Glo). Type of assay: biochemical. Particulars: kinase inhibitory activity, read-out: CDK2/E1 IC50. A digest of the protocol:
(§1)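 Kinase preincubated 10 min with compound in 50 mM Hepes, 10 mM MgCl2, 0.01% Brij35, 2 mM DTT, then substrate/ATP added for 60 min at 25 °C. ADP formed measured by ADP-Glo luminescence; IC50 by nonlinear concentration-response fitting.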

The target in assay [2] is CDK4/cyclin D1 (Homo sapiens, UniProt P11802). The assay is described as follows: Assay of kinase activity (ADP-Glo). Type of assay: biochemical. Particulars: kinase inhibitory activity. The gist of the method:
as §1
For orientation: ADP-Glo turns the ADP formed in a reaction into a luminescent signal.

Assay [3] concerns the target CDK6/cyclin D3 (Homo sapiens, UniProt Q00534). The assay is described as follows: Assay of kinase activity (ADP-Glo). Type of assay: biochemical. As to conditions: kinase inhibitory activity. The gist of the method: (§2)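 ADP production quantified by luminescence after 60 min kinase reaction at 25 °C, started with substrate/ATP following 10 min enzyme-compound preincubation. Buffer: 50 mM Hepes, 10 mM MgCl2, 0.01% Brij35, 2 mM DTT. IC50 obtained by nonlinear curve fitting of inhibition data.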

Assay [4] addresses CDK9/cyclin T1 (Homo sapiens, UniProt P50750). As to the kind of experiment: Assay of kinase activity (ADP-Glo). Format: biochemical. Particulars: kinase inhibitory activity. The gist of the method:
as §2

For assay [5], the system named is human acute myeloid leukemia MV-4-11 cells. The assay is described as follows: Assay of cell proliferation (CellTiter-Glo). Format: cell-based. Particulars: MV4-11, 144 h, 6 days, read-out: MV-4-11 IC50 of cell proliferation inhibitory activity. The gist of the method:
(§3)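 Cells seeded per line at growth-adapted densities, treated 6 days at 37 °C/5% CO2 with nine 3-fold dilutions (10 µM to 0.1 nM final, 0.5% DMSO). Viability by CellTiter-Glo luminescence; IC50 from four-parameter fit.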
For orientation: ATP-based viability assays read luminescence as a measure of living cells.

Assay [6] deals with human breast cancer HCC1806 cells. As to the kind of experiment: Assay of cell proliferation (CellTiter-Glo). Type of assay: cell-based. Particulars: Homo sapiens, 144 h, 6 days, read-out: HCC1806 IC50 of cell proliferation inhibitory activity. A digest of the protocol:
as §3

Assay [7] deals with human gastric cancer MKN1 cells. The assay is described as follows: Assay of cell proliferation (CellTiter-Glo). Type of assay: cell-based. As to conditions: Homo sapiens, MKN-1, 144 h; MNK1, 6 days; read-out: MKN1 IC50 of cell proliferation inhibitory activity. The gist of the method: as §3
The subject of assay [8] is Human ovarian cancer OVCAR3 cells. As to the kind of experiment: Assay of cell proliferation (CellTiter-Glo). Format: cell-based. Particulars: Homo sapiens, OVCAR-3, 144 h, 6 days, read-out: OVCAR3 IC50 of cell proliferation inhibitory activity. The gist of the method:
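OVCAR3 cells, 2000/well in RPMI 1640 with 20% FBS, treated with nine 3-fold dilutions from 10 µM to 0.1 nM (0.5% DMSO) for 6 days at 37 °C. Viability by CellTiter-Glo luminescence; IC50 by four-parameter fit.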

IC50 data for twelve compounds are collected here from patent EP4711369A1, “1H-[1,2,3]TRIAZOLO[4,5-H]QUINAZOLINE COMPOUNDS AS PROTEIN KINASE INHIBITORS” (Chengdu Cynogen Bio-Pharmaceutical Technology Co., Ltd., priority 2023, dated 2024).

Sequence of CDK4/cyclin D1 (P11802 whole entry, species assumed): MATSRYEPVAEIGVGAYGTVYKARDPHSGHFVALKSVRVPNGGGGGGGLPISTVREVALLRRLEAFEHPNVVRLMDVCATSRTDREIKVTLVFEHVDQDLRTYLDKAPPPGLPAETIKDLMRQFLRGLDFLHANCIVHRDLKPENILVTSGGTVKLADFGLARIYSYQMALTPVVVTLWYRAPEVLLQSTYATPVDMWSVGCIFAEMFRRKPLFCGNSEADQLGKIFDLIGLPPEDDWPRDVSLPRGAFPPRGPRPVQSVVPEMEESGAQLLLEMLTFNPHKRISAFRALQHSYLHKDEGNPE
Sequence of CDK4/cyclin D1 (P24385 whole entry partner, species assumed): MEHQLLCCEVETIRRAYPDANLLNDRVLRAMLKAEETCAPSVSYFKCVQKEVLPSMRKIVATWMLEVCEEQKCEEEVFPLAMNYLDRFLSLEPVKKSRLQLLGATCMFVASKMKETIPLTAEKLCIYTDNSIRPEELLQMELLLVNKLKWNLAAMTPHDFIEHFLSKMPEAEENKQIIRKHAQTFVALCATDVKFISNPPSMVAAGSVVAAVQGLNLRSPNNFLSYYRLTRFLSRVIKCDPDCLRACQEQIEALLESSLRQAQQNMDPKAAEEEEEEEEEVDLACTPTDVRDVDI
Sequence of CDK6/cyclin D3 (Q00534 whole entry, species assumed): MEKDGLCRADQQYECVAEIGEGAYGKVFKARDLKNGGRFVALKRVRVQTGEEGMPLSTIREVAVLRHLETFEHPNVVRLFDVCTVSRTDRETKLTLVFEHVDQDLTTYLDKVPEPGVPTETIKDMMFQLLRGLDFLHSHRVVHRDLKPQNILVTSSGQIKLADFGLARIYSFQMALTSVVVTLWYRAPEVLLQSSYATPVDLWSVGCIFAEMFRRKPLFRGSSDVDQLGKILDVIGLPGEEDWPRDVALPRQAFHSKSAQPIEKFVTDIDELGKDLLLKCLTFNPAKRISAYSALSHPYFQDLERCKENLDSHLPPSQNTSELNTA
Sequence of CDK6/cyclin D3 (P30281 whole entry partner, species assumed): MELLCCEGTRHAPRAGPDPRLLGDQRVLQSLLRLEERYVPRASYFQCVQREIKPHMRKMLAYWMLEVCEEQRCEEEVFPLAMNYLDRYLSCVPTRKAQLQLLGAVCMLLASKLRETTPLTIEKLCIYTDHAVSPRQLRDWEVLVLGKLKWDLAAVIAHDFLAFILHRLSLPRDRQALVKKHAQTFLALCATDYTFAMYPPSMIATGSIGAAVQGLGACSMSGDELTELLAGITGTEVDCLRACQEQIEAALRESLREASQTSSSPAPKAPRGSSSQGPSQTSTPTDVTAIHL
Sequence of CDK9/cyclin T1 (P50750 whole entry, species assumed): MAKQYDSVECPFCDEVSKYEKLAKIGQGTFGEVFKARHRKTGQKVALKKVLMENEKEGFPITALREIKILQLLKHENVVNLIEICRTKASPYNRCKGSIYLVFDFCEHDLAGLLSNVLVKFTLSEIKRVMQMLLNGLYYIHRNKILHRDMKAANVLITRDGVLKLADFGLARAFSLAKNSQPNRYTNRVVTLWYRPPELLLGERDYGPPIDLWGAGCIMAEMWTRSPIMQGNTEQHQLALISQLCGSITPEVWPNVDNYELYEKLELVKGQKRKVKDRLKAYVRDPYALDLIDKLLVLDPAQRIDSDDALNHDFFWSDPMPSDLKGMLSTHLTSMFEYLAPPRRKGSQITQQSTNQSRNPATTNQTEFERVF
Sequence of CDK9/cyclin T1 (O60563 whole entry partner, species assumed): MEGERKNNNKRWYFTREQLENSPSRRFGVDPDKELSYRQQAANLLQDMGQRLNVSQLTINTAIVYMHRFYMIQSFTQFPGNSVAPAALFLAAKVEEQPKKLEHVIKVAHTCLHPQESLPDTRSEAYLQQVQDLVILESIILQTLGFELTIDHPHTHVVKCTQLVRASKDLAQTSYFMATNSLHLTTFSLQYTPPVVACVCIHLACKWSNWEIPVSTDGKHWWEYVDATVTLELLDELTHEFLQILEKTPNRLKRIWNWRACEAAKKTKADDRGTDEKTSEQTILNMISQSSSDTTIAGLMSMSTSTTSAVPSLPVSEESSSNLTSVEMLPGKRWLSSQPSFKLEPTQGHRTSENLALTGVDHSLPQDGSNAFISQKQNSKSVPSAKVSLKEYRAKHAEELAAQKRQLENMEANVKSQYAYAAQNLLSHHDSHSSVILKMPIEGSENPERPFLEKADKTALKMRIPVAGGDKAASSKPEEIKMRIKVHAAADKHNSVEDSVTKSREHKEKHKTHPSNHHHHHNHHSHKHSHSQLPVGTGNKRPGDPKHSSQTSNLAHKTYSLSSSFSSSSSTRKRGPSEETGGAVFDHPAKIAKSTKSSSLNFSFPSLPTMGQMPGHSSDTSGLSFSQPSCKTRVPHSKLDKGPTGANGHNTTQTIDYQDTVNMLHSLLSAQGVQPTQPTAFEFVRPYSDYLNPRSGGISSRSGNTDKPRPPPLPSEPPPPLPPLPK

Turning to `CC(C)n1nnc2ccc3cnc(Nc4ccc(C(=O)N5CC[C@@H](N(C)C)C5)cc4)nc3c21` [Example I-11, (R)-(3-(Dimethylamino)pyrrolidin-1-yl)(4-((1-isopropyl-1H-[1,2,3]triazolo[4,5-H]quinazolin-8-yl)amino)phenyl)metha none], the IC50 in assay [1] amounted to 0.08 nM; in assay [2], 0.7 nM; in assay [3], 6 nM; in assay [4], 2 nM; in assay [5] it was 4 nM; in assay [6], 122 nM. For the same compound, the IC50 in assay [7] worked out at 29 nM; in assay [8] it was 148 nM.
With `CC(C)n1nnc2ccc3cnc(Nc4ccc(C(=O)N5CCC(N)CC5)c(F)c4)nc3c21` [Example I-16, (4-Aminopiperidin-1-yl)(2-fluoro-4-((1-isopropyl-1H-[1,2,3]triazolo[4,5-H]quinazolin-8-yl)amino)phenyl)metha none], the IC50 came out at 4 nM in assay [1]; 12 nM in assay [2]; 230 nM in assay [3]; 78 nM in assay [4]; 9 nM in assay [5]; 374 nM in assay [6]. Further, the IC50 in assay [7] worked out at 110 nM; in assay [8], 90 nM.
Take `CC(C)n1nnc2ccc3cnc(Nc4ccc(C(=O)N5CCC(N(C)C)CC5)c(F)c4)nc3c21` [Example I-17, (4-(Dimethylamino)piperidin-1-yl)(2-fluoro-4-((1-isopropyl-1H-[1,2,3]triazolo[4,5-H]quinazolin-8-yl)amino)phenyl)metha none]: the IC50 in assay [1] was found to be 0.8 nM; in assay [2] it was 2 nM; in assay [3] it was 190 nM; in assay [4], 60 nM; in assay [5], 12 nM; in assay [6] it was 319 nM. Further, the IC50 in assay [7] is 46 nM; in assay [8] it was 93 nM.
On to `CC(C)n1nnc2ccc3cnc(Nc4ccc(C(=O)N5CCC(F)CC5)cc4)nc3c21` [Example I-18, (4-Fluoropiperidin-1-yl)(4-((1-isopropyl-1H-[1,2,3]triazolo[4,5-H]quinazolin-8-yl)amino)phenyl)metha none], for which the IC50 in assay [1] turned out to be 2 nM; in assay [2], 5 nM; in assay [3], 35 nM; in assay [4], 25 nM; in assay [5], 23 nM; in assay [6], 247 nM. Moreover, the IC50 in assay [7] came to 129 nM; in assay [8], 214 nM.
In the case of `CC(C)n1nnc2ccc3cnc(Nc4ccc(C(=O)N5CCN[C@@H](C)C5)cc4)nc3c21` [Example I-20, (S)-(4-((1-Isopropyl-1H-[1,2,3]triazolo[4,5-H]quinazolin-8-yl)amino)phenyl)(3-methylpiperazin-1-yl)methanone], the IC50 in assay [1] is 1 nM; in assay [2], 1 nM; in assay [3] it was 16 nM; in assay [4], 3 nM; in assay [5], 6 nM; in assay [6], 109 nM. The IC50 in assay [7] is 23 nM; in assay [8], 39 nM.
For the compound `CC(C)n1nnc2ccc3cnc(Nc4ccc(C(=O)N5CCN[C@H](C)C5)cc4)nc3c21` [Example I-21, (R)-(4-((1-Isopropyl-1H-[1,2,3]triazolo[4,5-H]quinazolin-8-yl)amino)phenyl)(3-methylpiperazin-1-yl)methanone], the IC50 in assay [1] was 0.5 nM; in assay [2], 1 nM; in assay [3], 14 nM; in assay [4] it was 2 nM; in assay [5], 4 nM; in assay [6] it was 112 nM. The IC50 in assay [7] was 31 nM; in assay [8], 35 nM.
Regarding `CC(C)n1nnc2ccc3cnc(Nc4ccc(C(=O)N5CCNC(C)(C)C5)cc4)nc3c21` [Example I-22, (3,3-Dimethylpiperazin-1-yl)(4-((1-isopropyl-1H-[1,2,3]triazolo[4,5-H]quinazolin-8-yl)amino)phenyl)metha none], the IC50 turned out to be 2 nM in assay [1]; 4 nM in assay [2]; 23 nM in assay [3]; 4 nM in assay [4]; 5 nM in assay [5]; 115 nM in assay [6]. Further, the IC50 is 56 nM in assay [7] and 27 nM in assay [8].
In the case of `CC(C)n1nnc2ccc3cnc(Nc4ccc(C(=O)N5C[C@@H](C)N[C@@H](C)C5)cc4)nc3c21` [Example I-23, ((3R,5S)-3,5-dimethylpiperazin-1-yl)(4-((1-isopropyl-1H-[1,2,3]triazolo[4,5-H]quinazolin-8-yl)amino)phenyl)metha none], the IC50 was found to be 0.4 nM in assay [1]; 3 nM in assay [2]; 35 nM in assay [3]; 24 nM in assay [4]; 4 nM in assay [5]; 112 nM in assay [6]. Also, the IC50 in assay [7] is 57 nM; in assay [8] it was 73 nM.
Consider `CC(C)n1nnc2ccc3cnc(Nc4ccc(C(=O)N5CC6CC(C5)N6)cc4)nc3c21` [Example I-24, (3,6-Diazabicyclo[3.1.1]heptan-3-yl)(4-((1-isopropyl-1H-[1,2,3]triazolo[4,5-H]quinazolin-8-yl)amino)phenyl)metha none], for which the IC50 in assay [1] was determined as 0.1 nM; in assay [2] it was 1 nM; in assay [3] it was 26 nM; in assay [4], 8 nM; in assay [5], 3 nM; in assay [6], 44 nM. Moreover, the IC50 worked out at 6 nM in assay [7] and 18 nM in assay [8].
`CC(C)n1nnc2ccc3cnc(Nc4ccc(C(=O)N5CC6CCC(C5)N6)cc4)nc3c21` [Example I-25, (3,8-Diazabicyclo[3.2.1]octan-3-yl)(4-((1-isopropyl-1H-[1,2,3]triazolo[4,5-H]quinazolin-8-yl)amino)phenyl)metha none]: the IC50 turned out to be 0.2 nM in assay [1]; 1 nM in assay [2]; 29 nM in assay [3]; 16 nM in assay [4]; 4 nM in assay [5]; 85 nM in assay [6]. Moreover, the IC50 was determined as 13 nM in assay [7] and 33 nM in assay [8].
Take `CC(C)n1nnc2ccc3cnc(Nc4ccc(C(=O)N5CCS(=O)(=O)CC5)cc4)nc3c21` [Example I-32, (1,1-Dioxothiomorpholino)(4-((1-isopropyl-1H-[1,2,3]triazolo[4,5-H]quinazolin-8-yl)amino)phenyl)metha none]: the IC50 was 3 nM in assay [1]; 15 nM in assay [2]; 230 nM in assay [3]; 315 nM in assay [4]; 9 nM in assay [5]; 167 nM in assay [6]. The IC50 in assay [7] came to 44 nM; in assay [8], 80 nM.
For the compound `CC(C)n1nnc2ccc3cnc(Nc4ccc(C(=O)N5CCCNCC5)cc4)nc3c21` [Example I-33, (1,4-Diazepan-1-yl)(4-((1-isopropyl-1H-[1,2,3]triazolo[4,5-H]quinazolin-8-yl)amino)phenyl)metha none], the IC50 in assay [1] amounted to 0.2 nM; in assay [2], 1 nM; in assay [3] it was 26 nM; in assay [4], 45 nM; in assay [5], 2 nM; in assay [6], 19 nM. The IC50 came out at 3 nM in assay [7] and 5 nM in assay [8].
